Experimental data taken from US20070219248A1, “Salt of Oxalic Acid with -[4[2-(N-Methyl-N-(2-Pyridyl)-Amino)Ethoxy]Benzyl]Thiazolidin-2,4- Dione and a Method of its Preparation and its Use” (priority 2004, published 2007).
“Also recorded” adds a separate entry of the source. Where a name gives a salt, the structure may show the parent alone.

What was measured:
[1] = Solubility of rosiglitazone salts in 0.1 M hydrochloric acid (Example 7); assay type: physicochemical; details: 1 g salt
Source text: Contrary to some other salts of rosiglitazone, the above-described crystalline salt of formula III is well soluble in water and in aqueous solutions of hydrochloric acid. Especially the solubility in solutions of hydrochloric acid is very important considering the acidobasic conditions in the digestive system (especially in the stomach). It offers indication of the solubility of the substance after it is digested, which is a very important factor for evaluating pharmaceutical effectiveness of the substance. A comparison of the solubility of the salt of the compound of formula III in acidic environment with some of several other rosiglitazone salts is documented in Example 7. […] However, neither the same amount of rosiglitazone hydrochloride prepared according to WO 2000/063205 nor the same amount of pharmaceutically used rosiglitazone maleate of formula II prepared according to WO 94/05659 could be dissolved under the same conditions.
Solubility was determined for crystalline rosiglitazone oxalate of chemical formula III, which was prepared by the procedure according to Example 1. 1 g of crystalline salt of formula III was dissolved under stirring and at 25° C. in 20, 30, 35 a 40 ml of a 0.1M solution of hydrochloric acid. The mixture was stirred at 25° C. for five minutes. When using 20 and 30 ml of the solvent, there was obtained no solution.

[2] = Solubility in water and aqueous hydrochloric acid, stated only in words; assay type: physicochemical; details: crystalline form

| SMILES | Dissolution of 1 g of salt in 20 ml of solvent ([1]; 20 ml 0.1M hydrochloric acid, 25° C., stirred five minutes) | Dissolution of 1 g of salt in 30 ml of solvent ([1]; 30 ml 0.1M hydrochloric acid, 25° C., stirred five minutes) | Dissolution of 1 g of salt in 35 ml of solvent ([1]; 35 ml 0.1M hydrochloric acid, 25° C., stirred five minutes) | Dissolution of 1 g of salt in 40 ml of solvent ([1]; 40 ml 0.1M hydrochloric acid, 25° C., stirred five minutes) | Solubility in water and in aqueous solutions of hydrochloric acid [2] | Dissolution of the same amount (1 g) at the same conditions ([1]; 20 to 40 ml 0.1M hydrochloric acid, 25° C., stirred five minutes) | Dissolution after extension of the time and another dilution ([1]; extended dissolution time, further dilution with 0.1 M hydrochloric acid) |
| --- | --- | --- | --- | --- | --- | --- | --- |
| CN(CCOc1ccc(CC2SC(=O)NC2=O)cc1)c1ccccn1 (stereo not shown) [III] | no solution | no solution | cloudy solution | completely dissolved; also recorded: no cloudy solution | well soluble |  |  |
| CN(CCOc1ccc(CC2SC(=O)NC2=O)cc1)c1ccccn1 (stereo not shown) [rosiglitazone maleate, reference compound] |  |  |  |  |  | neither dissolving | No solutions could be obtained |
